These results are taken from patent US20060167110A1 (priority 1995, published 2006).

“And” between values parts separate entries of the source, which are not always exact repeats. Equal entries are not always repeated.

Assay [1] concerns cerebral infarction. The following applies: given orally; patients with subarachnoid hemorrhage and cerebral vasospasm; cited from earlier work.
Assay [2] concerns the target T1, MAO-B (Cavia porcellus, UniProt P58028).
T1 construct: MAO-B (^14C-phenylethylamine) by human platelets and guinea pig hippocampal homogenates; from tissue; host or cells: guinea pig hippocampal homogenates
T1 sequence (P58028 1-520): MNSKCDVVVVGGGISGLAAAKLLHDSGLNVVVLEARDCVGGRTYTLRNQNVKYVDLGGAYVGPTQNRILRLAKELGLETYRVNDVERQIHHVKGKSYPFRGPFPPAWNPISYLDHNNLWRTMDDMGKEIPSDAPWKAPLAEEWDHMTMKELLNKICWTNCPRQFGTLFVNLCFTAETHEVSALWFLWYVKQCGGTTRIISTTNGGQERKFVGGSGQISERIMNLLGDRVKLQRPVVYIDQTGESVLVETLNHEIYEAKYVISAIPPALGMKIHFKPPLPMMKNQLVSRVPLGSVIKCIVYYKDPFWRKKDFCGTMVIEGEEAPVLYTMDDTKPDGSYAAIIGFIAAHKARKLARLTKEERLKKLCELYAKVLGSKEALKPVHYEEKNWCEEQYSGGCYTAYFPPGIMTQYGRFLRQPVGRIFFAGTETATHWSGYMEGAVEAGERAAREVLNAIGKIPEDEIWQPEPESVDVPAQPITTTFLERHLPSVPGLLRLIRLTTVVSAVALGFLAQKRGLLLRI
As to the kind of experiment: MAO-B inhibition in guinea pig hippocampal homogenates in vitro. Format: biochemical. From the text: (§1) Human platelet MAO is comprised exclusively of the type-B isoform of the enzyme. […] The present study also examined the two enantiomers of DMS for inhibitory activity with respect to the MAO-A and MAO-B in guinea pig hippocampal tissue. Guinea pig brain tissue is an excellent animal model for studying brain dopamine metabolism, the enzyme kinetics of the multiple forms of MAO and the inhibitory properties of novel agents that interact with these enzymes. The multiple forms of MAO in this animal species show similar kinetic properties to those found in human brain tissue. Finally, the test agents were administered to guinea pigs and the extent to which they might act as inhibitors of brain MAO in vivo was assessed.
(§2) In vitro: The test system utilized the in vitro conversion of specific substrates of MAO-A (^14C-serotonin) in guinea pig hippocampal homogenates or MAO-B (^14C-phenylethylamine) by human platelets and guinea pig hippocampal homogenates. […] A percent inhibition was calculated from these values.

In assay [3] the target is T2, MAO-A (Cavia porcellus, UniProt H0UVA2).
T2 sequence (H0UVA2 1-461): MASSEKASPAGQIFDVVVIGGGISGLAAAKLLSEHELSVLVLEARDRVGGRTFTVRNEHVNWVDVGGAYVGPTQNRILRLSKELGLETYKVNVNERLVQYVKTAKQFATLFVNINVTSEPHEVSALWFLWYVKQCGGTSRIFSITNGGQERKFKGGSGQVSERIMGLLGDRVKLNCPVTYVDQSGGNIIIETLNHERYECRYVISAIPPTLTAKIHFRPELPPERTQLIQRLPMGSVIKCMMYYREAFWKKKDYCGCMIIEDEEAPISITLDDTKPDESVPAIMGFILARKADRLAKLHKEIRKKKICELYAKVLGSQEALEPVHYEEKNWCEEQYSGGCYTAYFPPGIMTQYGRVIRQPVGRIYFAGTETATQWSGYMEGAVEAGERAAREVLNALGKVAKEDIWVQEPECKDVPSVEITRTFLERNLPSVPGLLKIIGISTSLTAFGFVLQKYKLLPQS
The assay can be described thus: MAO-A inhibition in guinea pig hippocampal homogenates in vitro. Type of assay: biochemical. Also noted: specific substrates of MAO-A (^14C-serotonin) in guinea pig hippocampal homogenates; from tissue; host or cells: guinea pig hippocampal homogenates. Conditions: for reduction in potency compared to selegiline, MAO-A: figure in parentheses, times less potent.
Description: as §1, §2

Assay [4] has as its system rat embryonic mesencephalic cells. As to the kind of experiment: TH positive cell survival, medium change (glutamate receptor dependent) model of cell death.
Description: (§3) In these experiments, cells were plated and allowed to stabilize for several days.
Assay [5] concerns the target T1, MAO-B. The assay can be described thus: In vivo brain MAO-B inhibition in guinea pig hippocampus after 5 daily s.c. doses. Conditions: preliminary studies. How it is done: FIG. 20: In vivo MAO-B Inhibition in Guinea Pig Hippocampus. […] Animals were then sacrificed and the MAO-B activity in the hippocampus portion of the brain was determined. […] The plots were used to estimate the ID50 dosage for each agent.
Each enantiomer of DMS was administered in vivo by subcutaneous injection once a day for five consecutive days, and inhibition of brain MAO-B activity was then determined.

Assay [6] concerns rat embryonic mesencephalic cells. The assay can be described thus: [3H]dopamine uptake, medium change (glutamate receptor dependent) model of cell death.
Description: Preparations are then added to 10 ml Ecoscint (National Diagnostics) and counted in a scintillation spectrometer.
as §3
Assay [7] addresses T3, dopamine uptake system (Rattus norvegicus, UniProt P23977).
T3 construct: An in vitro nerve-terminal preparation (symptosome-preparation) was obtained from fresh rat neostriatal brain tissue; from tissue; host or cells: rat neostriatal synaptosomes
As to the kind of experiment: Inhibition of tritiated dopamine uptake in rat neostriatal nerve-terminal (synaptosome) preparation. Type of assay: biochemical. How it is done:
An in vitro nerve terminal preparation (synaptosome preparation) was prepared using fresh rat neostriatal tissue.
Transport by dopamine nerve-terminals was estimated by measuring the uptake of tritiated dopamine.

Assay [8] has as its system cultured rat mesencephalic cells. As to the kind of experiment: TH immunochemistry after 100 μM NMDA exposure.
Description: Rat mesencephalic cell cultures were exposed to 100 μM NMDA and incubated as described above in connection with FIG. 16.
In assay [9] the target is T4, MAO-A (Rattus norvegicus, UniProt P21396).
T4 sequence (P21396 1-526): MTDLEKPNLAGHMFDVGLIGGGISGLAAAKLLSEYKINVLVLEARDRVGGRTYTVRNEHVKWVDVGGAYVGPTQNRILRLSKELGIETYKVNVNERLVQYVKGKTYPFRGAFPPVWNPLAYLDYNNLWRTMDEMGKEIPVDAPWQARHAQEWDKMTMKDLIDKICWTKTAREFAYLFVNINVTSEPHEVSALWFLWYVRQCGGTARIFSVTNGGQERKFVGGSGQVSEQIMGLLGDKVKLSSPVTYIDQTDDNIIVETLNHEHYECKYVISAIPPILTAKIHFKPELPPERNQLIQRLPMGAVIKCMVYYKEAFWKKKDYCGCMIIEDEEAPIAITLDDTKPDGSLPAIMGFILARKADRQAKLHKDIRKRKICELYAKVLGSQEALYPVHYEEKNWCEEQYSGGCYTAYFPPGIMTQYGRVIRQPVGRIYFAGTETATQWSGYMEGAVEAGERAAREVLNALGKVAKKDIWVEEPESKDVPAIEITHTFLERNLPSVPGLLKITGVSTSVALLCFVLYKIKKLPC
The assay can be described thus: Inhibition of MAO-A in rat cortex mitochondrial-rich fractions. The following applies: read-out: Percent Inhibition MAO-A.

In assay [10] the target is T2, MAO-A. The assay can be described thus: In vivo MAO-A inhibition in guinea pig cortex (hippocampus) after 5 s.c. treatments. The following applies: sc, read-out: inhibition of MAO-A activity.
Description: Hippocampal homogenates containing enzyme were prepared, and assays in vitro for MAO-A and MAO-B activity.

T3 sequence (P23977 whole entry): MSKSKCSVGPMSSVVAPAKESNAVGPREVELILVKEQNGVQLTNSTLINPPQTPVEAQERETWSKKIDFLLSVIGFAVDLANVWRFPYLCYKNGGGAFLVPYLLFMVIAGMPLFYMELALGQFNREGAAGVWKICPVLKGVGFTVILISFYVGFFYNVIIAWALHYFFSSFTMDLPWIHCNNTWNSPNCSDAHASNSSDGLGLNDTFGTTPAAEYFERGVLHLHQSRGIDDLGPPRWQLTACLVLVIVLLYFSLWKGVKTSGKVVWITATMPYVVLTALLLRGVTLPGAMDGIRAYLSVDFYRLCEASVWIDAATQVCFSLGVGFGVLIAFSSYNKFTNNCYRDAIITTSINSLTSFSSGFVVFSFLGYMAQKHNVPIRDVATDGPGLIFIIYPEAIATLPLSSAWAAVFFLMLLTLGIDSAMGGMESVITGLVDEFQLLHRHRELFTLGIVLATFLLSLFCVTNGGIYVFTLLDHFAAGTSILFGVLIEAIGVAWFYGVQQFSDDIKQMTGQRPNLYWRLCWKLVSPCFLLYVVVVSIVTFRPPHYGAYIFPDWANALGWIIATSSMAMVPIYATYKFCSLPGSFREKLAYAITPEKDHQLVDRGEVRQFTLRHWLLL

For `COCCOC(=O)C1=C(C)NC(C)=C(C(=O)OC(C)C)C1c1cccc([N+](=O)[O-])c1` (stereo not drawn) [Nimodipine], the “incidence of cerebral infarction” value in assay [1] is listed as “lower by one third”.

Broadly, the IC50 is the point on the concentration scale where inhibition reaches its midpoint. In turn, `C#CCNC(C)Cc1ccccc1` (single isomer, unassigned) [S(+)DMS, S(+)-desmethylselegiline] gave an IC50 in [2] (IC50 Values for the Inhibition of MAO-B, Guinea Pig Hippocampal Cortex) of 1200 nM. Moreover, in assay [2] (figure in parentheses), the “reduction in potency compared to selegiline, MAO-B, Guinea Pig Hippocampal Cortex” value was 1200 nM (1200). Also, the inhibition at 0.3 µM in assay [2] (read-out: MAO-B % Inhibition 0 ± SEM, Concentration 300 nM) is 18.7 ± 2.1%. In addition, in assay [2] (read-out: MAO-B % Inhibition 0 ± SEM, Concentration 3 μM), the inhibition at 3 µM was determined as 77.1 ± 6%. Besides, the “MAO-A % Reduction 0 ± SEM” value in [3] (Concentration 1 nM) was 92.7 ± 2.5%; in assay [3] (Concentration 10 nM), 99.6 ± 0.35%; in assay [3] (Concentration 1 μM), 3.3 + 1.5%; in assay [3] (Concentration 3 μM), 4.3 ± 1.0%; in assay [3] (Concentration 10 μM) it was 10.5 ± 1.47%; in assay [3] (Concentration 100 μM), 48.4 ± 1.8%. Besides, in [3], the “reduction in potency compared to selegiline, MAO-A” value is on record as 40. Also, the “TH positive cells, % control” value in assay [4] (0.5 μM, Mean) is 143.5 % control; in assay [4] (0.5 μM, single sample) it was 152.7 % control and 125.2 % control; in [4] (5.0 μM, Mean) it was 130.6 % control; in [4] (5.0 μM, single sample), 129.9 % control and 135.6 % control and 123.3 % control and 133.7 % control; in assay [4] (50 μM, Mean) it was 109.8 % control; in assay [4] (50 μM, single sample), 116.6 % control and 94.8 % control and 118.5 % control and 109.1 % control. Moreover, the “TH positive cells, % control” value in assay [8] (0.5 μM, Mean) was 182.3 % control; in assay [8] (0.5 μM, single sample) it was 135.4 % control and 223.0 % control and 188.5 % control; in assay [8] (5.0 μM, Mean), 197.8 % control; in assay [8] (5.0 μM, single sample), 204.4 % control and 199.1 % control and 183.2 % control; in assay [8] (50 μM, Mean) it was 276.1 % control; in assay [8] (50 μM, single sample), 315.9 % control and 215.0 % control and 337.2 % control and 236.3 % control. The “TH positive cells, cells/cm^2” value is 403.1 cells/cm^2 in assay [4] (0.5 μM, Mean); 402.5 cells/cm^2 and 330.0 cells/cm^2 and 477.5 cells/cm^2 in assay [4] (0.5 μM, single sample); 344.4 cells/cm^2 in assay [4] (5.0 μM, Mean); 342.5 cells/cm^2 and 357.5 cells/cm^2 and 325.0 cells/cm^2 and 352.5 cells/cm^2 in assay [4] (5.0 μM, single sample); 289.4 cells/cm^2 in assay [4] (50 μM, Mean); 307.5 cells/cm^2 and 250.0 cells/cm^2 and 312.5 cells/cm^2 and 287.5 cells/cm^2 in [4] (50 μM, single sample). The “TH positive cells, cells/cm^2” value in assay [8] (0.5 μM, Mean) is 171.67 cells/cm^2; in assay [8] (0.5 μM, single sample), 127.5 cells/cm^2 and 210 cells/cm^2 and 177.5 cells/cm^2; in assay [8] (5.0 μM, Mean), 186.25 cells/cm^2; in [8] (5.0 μM, single sample), 192.5 cells/cm^2 and 187.5 cells/cm^2 and 172.5 cells/cm^2; in assay [8] (50 μM, Mean), 260 cells/cm^2; in assay [8] (50 μM, single sample) it was 297.5 cells/cm^2 and 202.5 cells/cm^2 and 317.5 cells/cm^2 and 222.5 cells/cm^2. For the same molecule, the “times less potent than selegiline, brain MAO-B in vivo” value in [5] was “about 10 times”. For the same molecule, the “Dopamine uptake, % control” value in [6] (0.5 μM, Mean) was 167.2 % control; in [6] (0.5 μM, single sample), 170.6 % control and 152.8 % control and 157.4 % control and 188.2 % control; in assay [6] (5.0 μM, Mean) it was 180.5 % control; in assay [6] (5.0 μM, single sample), 171.3 % control and 173.7 % control and 181.7 % control and 195.1 % control; in assay [6] (50 μM, Mean), 157.3 % control; in assay [6] (50 μM, single sample) it was 123.8 % control and 177.7 % control and 146.3 % control and 181.1 % control. For the same molecule, the “Dopamine uptake, counts/min” value is 35115.5 counts/min in assay [6] (0.5 μM, Mean); 35830 counts/min and 32074 counts/min and 33042 counts/min and 39516 counts/min in assay [6] (0.5 μM, single sample); 37889.75 counts/min in [6] (5.0 μM, Mean); 35976 counts/min and 36476 counts/min and 38143 counts/min and 40964 counts/min in assay [6] (5.0 μM, single sample); 33016.75 counts/min in assay [6] (50 μM, Mean); 26002 counts/min and 37320 counts/min and 30725 counts/min and 38020 counts/min in [6] (50 μM, single sample). Further, the “times more potent than either selegiline or R(−)DMS in inhibiting dopamine uptake” value in assay [7] was 4-5 times.

Regarding `C#CCN(C)[C@H](C)Cc1ccccc1` [Selegiline, (R)-N-α-dimethyl-N-2-propynylbenzeethanamine, reference compound], in [9], the inhibition at 0.03 µM stood at 0%. The entries for the “MAO-A % Reduction 0 ± SEM” value in assay [3] (Concentration 300 nM), in [3] (Concentration 1 μM) and in assay [3] (Concentration 3 μM) were 11.95 ± 2.4%, 22.1 ± 1.2% and 53.5 ± 2.7%, respectively. The “reduction in potency compared to selegiline, MAO-A” value in assay [3] was 1. Further, the “TH positive cells, cells/cm^2” value in assay [4] (50 μM, Mean, listed as Deprenyl) is listed as 344.2 cells/cm^2; in assay [8] (50 μM, single sample, listed as Deprenyl), 230 cells/cm^2. For the same molecule, in assay [4] (0.5, 5.0 or 50 μM, 4 days of daily medium changes), the “survival of dopaminergic neurons (TH staining and tritiated dopamine uptake, FIGS. 11 and 12)” value is on record as “promotes the survival of dopaminergic neurons”. The “neuron protection by measurement of dopamine uptake (FIG. 15)” value in assay [6] (50 μM) is on record as “neuron protection”. Further, the inhibition at 1 mg/kg in assay [10] was determined as 36.1%.
